PubChem BioAssay AID330 (DTP/NCI, 2004)
Several values for one entry are separate records, joined by “and”; a condition that tells them apart may be missing. Equal entries are not always repeated. Toxic doses and inconclusive results are not listed. Peptide text beside a SMILES is read from it.

Test system: P388 leukemia ip, CD2F1 mice, survival T/C
Experiment: NCI In Vivo Anticancer Drug Screen. Data for tumor model P388 Leukemia (intraperitoneal) in CD2F1 (CDF1) mice
Conditions: endpoint: median survival time, higher = longer survival
In short: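 Mice carrying the transplanted tumor received test compound or vehicle. Survival was recorded in each group, and the value is the treated-group measurement divided by that of the vehicle-treated control group.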

[1] = dose: 60.0 mg/kg/injection, schedule: Q01DX005 (ip), vehicle: saline with Tween-80
[2] = dose: 120.0 mg/kg/injection, schedule: Q01DX005 (ip), vehicle: saline with Tween-80
[3] = dose: 240.0 mg/kg/injection, schedule: Q01DX005 (ip), vehicle: saline with Tween-80
[4] = dose: 100.0 mg/kg/injection, schedule: Q01DX001 (ip), vehicle: saline with Tween-80
[5] = dose: 200.0 mg/kg/injection, schedule: Q01DX001 (ip), vehicle: saline with Tween-80
[6] = dose: 100.0 mg/kg/injection, schedule: Q01DX009 (ip), vehicle: Klucel (hydroxypropylcellulose) (HPC)
[7] = dose: 200.0 mg/kg/injection, schedule: Q01DX009 (ip), vehicle: Klucel (hydroxypropylcellulose) (HPC)
[8] = dose: 50.0 mg/kg/injection, schedule: Q01DX009 (ip), vehicle: saline
[9] = dose: 100.0 mg/kg/injection, schedule: Q01DX009 (ip), vehicle: saline
[10] = dose: 100.0 mg/kg/injection, schedule: Q04DX003 (ip), vehicle: saline

For COC(=O)Nc1nc2ccc(Br)cc2[nH]1, which T/C (dose: 200.0 mg/kg/injection, schedule: Q04DX003 (oral), vehicle: saline with Tween-80) is on record?
The T/C was 115 % of control.

And the T/C (dose: 400.0 mg/kg/injection, schedule: Q04DX003 (oral), vehicle: saline with Tween-80)?
The T/C was 107 % of control.

And the T/C (dose: 800.0 mg/kg/injection, schedule: Q04DX003 (oral), vehicle: saline with Tween-80)?
Its T/C is 104 % of control.

And the T/C (dose: 1600.0 mg/kg/injection, schedule: Q04DX003 (oral), vehicle: saline with Tween-80)?
The T/C was 120 % of control.

Which results are given for O=C(N/C(=C\c1ccc(Cl)cc1)c1nc2ccccc2s1)c1ccccc1?
T/C [1]: 111 % of control; T/C [2]: 113 % of control; T/C [3]: 113 % of control

CC1CCC2(C(=O)O)CCC3(C)C(=CCC4C5(C)CCC(OC(=O)/C=C/c6ccccc6)C(C)(C)C5CCC43C)C2C1C (configuration not stated) was tested. Which T/C (dose: 7.44 mg/kg/injection, schedule: Q01DX009 (ip), vehicle: Klucel (hydroxypropylcellulose) (HPC)) did it give?
Its T/C is 107 % of control.

What about the T/C (dose: 14.88 mg/kg/injection, schedule: Q01DX009 (ip), vehicle: Klucel (hydroxypropylcellulose) (HPC)) of the same compound?
The T/C was 100 % of control.

And the T/C (dose: 29.76 mg/kg/injection, schedule: Q01DX009 (ip), vehicle: Klucel (hydroxypropylcellulose) (HPC))?
Its T/C is 101 % of control.

Which results are given for COc1ccc2cc1Oc1ccc(cc1)CC1c3c(cc(OC)c(OC)c3Oc3cc4c(cc3OC)CCN(C)C4C2)CCN1C (configuration not stated)?
T/C [4]: 103 % of control; T/C [5]: 92 % of control

With O=C(O)c1c2c(nc3ccccc13)Cc1ccccc1-2 as the compound, how does the T/C (dose: 6.25 mg/kg/injection, schedule: Q01DX009 (ip), vehicle: Klucel (hydroxypropylcellulose) (HPC)) read?
Its T/C is 97 % of control.

What about the T/C (dose: 6.25 mg/kg/injection, schedule: Q01DX009 (ip), vehicle: water) of the same compound?
Its T/C is 101 % of control.

And the T/C (dose: 12.5 mg/kg/injection, schedule: Q01DX009 (ip), vehicle: Klucel (hydroxypropylcellulose) (HPC))?
The T/C was 98 % of control.

And the T/C (dose: 12.5 mg/kg/injection, schedule: Q01DX009 (ip), vehicle: water)?
Its T/C is 99 % of control and 109 % of control.

And the T/C (dose: 25.0 mg/kg/injection, schedule: Q01DX009 (ip), vehicle: Klucel (hydroxypropylcellulose) (HPC))?
The T/C was 106 % of control.

And the T/C (dose: 25.0 mg/kg/injection, schedule: Q01DX009 (ip), vehicle: water)?
The T/C was 104 % of control and 110 % of control and 114 % of control.

And the T/C (dose: 50.0 mg/kg/injection, schedule: Q01DX009 (ip), vehicle: saline with Tween-80)?
The T/C was 110 % of control.

And the T/C (dose: 50.0 mg/kg/injection, schedule: Q01DX009 (ip), vehicle: water)?
The T/C was 115 % of control and 121 % of control.

And the T/C [6]?
Its T/C is 160 % of control and 169 % of control.

What about the T/C (dose: 100.0 mg/kg/injection, schedule: Q01DX009 (ip), vehicle: water) of the same compound?
Its T/C is 166 % of control and 172 % of control.

What about the T/C [7] of the same compound?
The T/C was 172 % of control and 179 % of control.

And the T/C (dose: 200.0 mg/kg/injection, schedule: Q01DX009 (ip), vehicle: saline with Tween-80)?
The T/C was 181 % of control.

What about the T/C (dose: 200.0 mg/kg/injection, schedule: Q01DX009 (ip), vehicle: water) of the same compound?
The T/C was 106 % of control.

How did the T/C [8] turn out when O=C(O)C(O)C(O)C(O)C(=O)O (configuration not stated) was run?
Its T/C is 101 % of control.

And the T/C [9]?
Its T/C is 107 % of control.

What about the T/C (dose: 200.0 mg/kg/injection, schedule: Q01DX009 (ip), vehicle: saline) of the same compound?
The T/C was 91 % of control.

Which results are given for O=C(OC1CC2CCCCC2CC1(O)c1ccccc1)c1cccc(Cl)c1 (configuration not stated)?
T/C (dose: 100.0 mg/kg/injection, schedule: Q01DX001 (ip), vehicle: acetone): 99 % of control; T/C (dose: 200.0 mg/kg/injection, schedule: Q01DX001 (ip), vehicle: acetone): 103 % of control; T/C (dose: 400.0 mg/kg/injection, schedule: Q01DX001 (ip), vehicle: acetone): 104 % of control

Which T/C (dose: 6.25 mg/kg/injection, schedule: Q04DX002 (ip), vehicle: saline with Tween-80) does the source give for CN=C(N)NN=C(c1ccc(Cl)cc1)c1ccc(Cl)cc1 here?
Its T/C is 101 % of control.

What about the T/C (dose: 12.5 mg/kg/injection, schedule: Q04DX002 (ip), vehicle: saline with Tween-80) of the same compound?
The T/C was 102 % of control.

And the T/C (dose: 25.0 mg/kg/injection, schedule: Q04DX002 (ip), vehicle: saline with Tween-80)?
Its T/C is 158 % of control.

How did the T/C (dose: 7.5 mg/kg/injection, schedule: Q01DX005 (ip), vehicle: saline with Tween-80) turn out when c1ccc(C(=C2C(=C(c3ccccc3)c3ccccc3)c3nc4ccccc4nc32)c2ccccc2)cc1 was run?
Its T/C is 90 % of control.

And the T/C (dose: 15.0 mg/kg/injection, schedule: Q01DX005 (ip), vehicle: saline with Tween-80)?
Its T/C is 88 % of control.

And the T/C [1]?
Its T/C is 86 % of control.

What about the T/C [2] of the same compound?
The T/C was 87 % of control.

What about the T/C [3] of the same compound?
Its T/C is 90 % of control.

For NC(Cc1cccs1)C(=O)Nc1nncs1 (configuration not stated), which T/C (dose: 100.0 mg/kg/injection, schedule: Q04DX002 (ip), vehicle: suspension in saline) is on record?
The T/C was 95 % of control.

And the T/C (dose: 200.0 mg/kg/injection, schedule: Q04DX002 (ip), vehicle: suspension in saline)?
Its T/C is 119 % of control.

And the T/C (dose: 400.0 mg/kg/injection, schedule: Q04DX002 (ip), vehicle: saline)?
The T/C was 160 % of control.

What about the T/C (dose: 400.0 mg/kg/injection, schedule: Q04DX002 (ip), vehicle: suspension in saline) of the same compound?
The T/C was 121 % of control.

And the T/C (dose: 600.0 mg/kg/injection, schedule: Q04DX002 (ip), vehicle: saline)?
The T/C was 160 % of control.

Which results are given for Cc1c2cc[n+](C)c(C)c2cc2c1[nH]c1ccc(O)cc12?
T/C (dose: 10.0 mg/kg/injection, schedule: Q04DX002 (ip), vehicle: water): 157 % of control; T/C (dose: 20.0 mg/kg/injection, schedule: Q04DX002 (ip), vehicle: water): 162 % of control; T/C (dose: 40.0 mg/kg/injection, schedule: Q04DX002 (ip), vehicle: water): 89 % of control; T/C (dose: 50.0 mg/kg/injection, schedule: Q04DX002 (ip), vehicle: water): 88 % of control

Cn1nnnc1CC(=O)O was tested. Which T/C [10] did it give?
Its T/C is 99 % of control.

What about the T/C (dose: 200.0 mg/kg/injection, schedule: Q04DX003 (ip), vehicle: saline) of the same compound?
The T/C was 108 % of control.

What about the T/C (dose: 400.0 mg/kg/injection, schedule: Q04DX003 (ip), vehicle: saline) of the same compound?
Its T/C is 103 % of control.

Which T/C (dose: 50.0 mg/kg/injection, schedule: Q01DX001 (ip), vehicle: Klucel (hydroxypropylcellulose) (HPC)) does the source give for c1cc(-c2nn[nH]n2)ccc1NNc1ccc(-c2nn[nH]n2)cc1 here?
Its T/C is 101 % of control.

What about the T/C (dose: 100.0 mg/kg/injection, schedule: Q01DX001 (ip), vehicle: Klucel (hydroxypropylcellulose) (HPC)) of the same compound?
Its T/C is 105 % of control.

What about the T/C (dose: 200.0 mg/kg/injection, schedule: Q01DX001 (ip), vehicle: Klucel (hydroxypropylcellulose) (HPC)) of the same compound?
Its T/C is 98 % of control.

Which T/C [4] does the source give for O=C1CSC(c2ccccc2O)N1c1ccc(N2C(=O)CSC2c2ccccc2O)cc1 (configuration not stated) here?
Its T/C is 90 % of control.

And the T/C [5]?
Its T/C is 87 % of control.

And the T/C (dose: 400.0 mg/kg/injection, schedule: Q01DX001 (ip), vehicle: saline with Tween-80)?
The T/C was 87 % of control.

Which T/C (dose: 100.0 mg/kg/injection, schedule: Q04DX003 (ip), vehicle: saline with Tween-80) does the source give for C1CSC(SCCCSC2SCCCS2)SC1 here?
The T/C was 99 % of control.

And the T/C (dose: 200.0 mg/kg/injection, schedule: Q04DX003 (ip), vehicle: saline with Tween-80)?
The T/C was 104 % of control.

And the T/C (dose: 400.0 mg/kg/injection, schedule: Q04DX003 (ip), vehicle: saline with Tween-80)?
Its T/C is 94 % of control.

With COC(=O)C(Cc1ccccc1)NC(=O)C(CC(C)C)NC(=O)C(CC(C)C)NC(=O)C(N)CC(C)C (configuration not stated) (H-LLLF-OMe; configuration not given here) as the compound, how does the T/C (dose: 50.0 mg/kg/injection, schedule: Q01DX005 (ip), vehicle: saline with Tween-80) read?
Its T/C is 98 % of control.

What about the T/C (dose: 100.0 mg/kg/injection, schedule: Q01DX005 (ip), vehicle: saline with Tween-80) of the same compound?
Its T/C is 104 % of control.

Which results are given for CC1(C)CSC(=S)N1?
T/C (dose: 2.5 mg/kg/injection, schedule: Q01DX009 (ip), vehicle: saline sonified): 109 % of control; T/C (dose: 5.0 mg/kg/injection, schedule: Q01DX009 (ip), vehicle: saline sonified): 100 % of control; T/C (dose: 10.0 mg/kg/injection, schedule: Q01DX009 (ip), vehicle: saline sonified): 100 % of control

Which results are given for CC(C)N(CCCOC(=O)c1ccc(N)cc1)C(C)C?
T/C (dose: 25.0 mg/kg/injection, schedule: Q01DX009 (ip), vehicle: saline): 100 % of control; T/C (dose: 25.0 mg/kg/injection, schedule: Q04DX003 (ip), vehicle: saline): 100 % of control; T/C [8]: 100 % of control; T/C (dose: 50.0 mg/kg/injection, schedule: Q04DX003 (ip), vehicle: saline): 91 % of control; T/C [9]: 100 % of control; T/C [10]: 100 % of control

How did the T/C (dose: 50.0 mg/kg/injection, schedule: Q01DX009 (ip), vehicle: Klucel (hydroxypropylcellulose) (HPC)) turn out when O=C(CC1=NCCN1)c1ccccc1 was run?
The T/C was 100 % of control.

What about the T/C [6] of the same compound?
The T/C was 102 % of control.

And the T/C [7]?
Its T/C is 108 % of control.

With N#Cc1cnc(N)[nH]c1=O as the compound, how does the T/C (dose: 15.0 mg/kg/injection, schedule: Q01DX005 (ip), vehicle: Klucel (hydroxypropylcellulose) (HPC)) read?
Its T/C is 101 % of control.

What about the T/C (dose: 30.0 mg/kg/injection, schedule: Q01DX005 (ip), vehicle: Klucel (hydroxypropylcellulose) (HPC)) of the same compound?
The T/C was 97 % of control.

What about the T/C (dose: 60.0 mg/kg/injection, schedule: Q01DX005 (ip), vehicle: Klucel (hydroxypropylcellulose) (HPC)) of the same compound?
The T/C was 98 % of control and 99 % of control.
